Measured values: PMC9320114 (Molecules, 2022)
Like-named read-outs stand apart in the source and are kept apart here.

Legend:
hMAO-B = molecular target: T1, hMAO-B (Homo sapiens, UniProt P27338); test: biochemical; conditions: for IC50: IC50 ± SEM
T1 construct: purchased Sigma Aldrich; host or cells: BTI-TN-5B1-4 baculovirus-infected insect cells
T1 sequence (P27338 1-520): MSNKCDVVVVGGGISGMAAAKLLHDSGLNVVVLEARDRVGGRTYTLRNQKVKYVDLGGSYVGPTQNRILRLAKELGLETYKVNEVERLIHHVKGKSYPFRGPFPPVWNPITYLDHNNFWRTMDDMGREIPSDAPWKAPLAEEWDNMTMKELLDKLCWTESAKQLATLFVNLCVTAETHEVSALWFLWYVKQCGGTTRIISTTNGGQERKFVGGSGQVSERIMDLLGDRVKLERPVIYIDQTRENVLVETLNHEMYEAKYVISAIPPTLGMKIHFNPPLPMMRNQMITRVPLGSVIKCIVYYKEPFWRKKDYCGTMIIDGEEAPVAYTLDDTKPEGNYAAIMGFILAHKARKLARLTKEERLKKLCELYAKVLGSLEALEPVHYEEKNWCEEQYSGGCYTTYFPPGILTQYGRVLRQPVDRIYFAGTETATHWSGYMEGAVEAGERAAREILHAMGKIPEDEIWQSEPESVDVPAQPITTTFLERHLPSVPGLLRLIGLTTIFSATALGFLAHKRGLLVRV
Source text: (§1) The effects of the compounds on hMAO-A and hMAO-B were investigated using a fluorimetric assay, following a method previously described in the literature. Recombinant human microsomal hMAO enzymes expressed in BTI-TN-5B1-4 baculovirus-infected insect cells, horseradish peroxidase (HRP, type II, lyophilized powder), and p-tyramine hydrochloride were purchased from Sigma Aldrich. 10-Acetyl-3,7-dihydroxyphenoxazine (Amplex Red reagent) was synthesized as described in the literature.
After preincubation, the reaction was started by adding final concentrations of 200 µM Amplex Red reagent, 2 U/mL HRP, and 1 mM p-tyramine hydrochloride. Resorufin production was quantified based on the fluorescence produced (λex = 530 nm; λem = 590 nm) at 37 °C over a 20 min period. For the control experiments, DMSO was used instead of appropriate dilutions of the compounds in DMSO. For the determination of blank (b), the enzyme solution was replaced by a phosphate-buffered solution. Initial velocities were calculated from the obtained trend, with each measurement performed in duplicate. Specific fluorescence emission to determine the final results was calculated after subtracting the blank activity (b). Inhibitory potencies were expressed as RAs, and IC50 values were calculated as described in the section “Inhibition of hBChE and mAChE” above.

DdlB = DdlB (Escherichia coli, UniProt P07862); test: Inhibition of DdlB, colorimetric malachite green method; type: biochemical, bacterial; conditions: 20 min, read-out: DdlB (RA [%])
Method: (§2) Inhibition of Mur enzymes was monitored with the colorimetric malachite green method, which measured orthophosphate formed during reaction. The mixtures with a final volume of 50 µL contained:
DdlB: 50 mM HEPES-NaOH, pH 8.0, 5 mM MgCl2, 6.5 mM (NH4)2SO4, 10 mM KCl, 0.005% Triton X-114, 700 µM D-Ala, 500 µM ATP, purified DdlB, and 50 µM of each compound tested.
(§3) All compounds were soluble in the assay mixtures containing 5% DMSO (v/v). After incubation for 15 min (20 min for DdlB) at 37 °C, the enzyme reaction was terminated by addition of Biomol® reagent (100 µL) and absorbance was measured after 5 min at 650 nm (Synergy™ H4 microplate reader; BioTek Instruments, Inc., BioTek Gen5 Data Analysis Software, version 2.9, Santa Clara, CA, USA). All experiments were performed in duplicate.

hMAO-A = molecular target: T2, hMAO-A (Homo sapiens, UniProt P21397); test: Inhibition of hMAO-A, fluorimetric Amplex Red assay; type: biochemical; conditions: residual activity at 10 µM
T2 construct: purchased Sigma Aldrich; host or cells: BTI-TN-5B1-4 baculovirus-infected insect cells
T2 sequence (P21397 1-527): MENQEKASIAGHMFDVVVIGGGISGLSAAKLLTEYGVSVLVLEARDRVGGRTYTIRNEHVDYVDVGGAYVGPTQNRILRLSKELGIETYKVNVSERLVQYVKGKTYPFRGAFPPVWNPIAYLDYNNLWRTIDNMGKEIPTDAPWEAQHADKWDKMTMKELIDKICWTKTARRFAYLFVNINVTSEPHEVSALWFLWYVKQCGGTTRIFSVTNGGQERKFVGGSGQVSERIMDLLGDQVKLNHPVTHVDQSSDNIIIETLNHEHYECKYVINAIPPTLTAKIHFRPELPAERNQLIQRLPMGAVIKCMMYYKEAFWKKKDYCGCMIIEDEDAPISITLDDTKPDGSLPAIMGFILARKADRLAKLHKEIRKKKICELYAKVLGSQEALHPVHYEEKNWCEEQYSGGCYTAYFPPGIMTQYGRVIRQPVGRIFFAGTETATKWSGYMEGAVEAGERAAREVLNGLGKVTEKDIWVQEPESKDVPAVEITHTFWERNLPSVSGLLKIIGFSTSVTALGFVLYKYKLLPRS
Method: as §1
Briefly, 100 µL of 50 mM sodium phosphate buffer (pH 7.4, 0.05% (v/v) Triton X-114), containing the compounds and hMAO-A or hMAO-B, was incubated for 15 min at 37 °C in a flat-bottomed black 96-well microplate protected from ambient light. After preincubation, the reaction was started by adding final concentrations of 200 µM Amplex Red reagent, 2 U/mL HRP, and 1 mM p-tyramine hydrochloride. Resorufin production was quantified based on the fluorescence produced (λex = 530 nm; λem = 590 nm) at 37 °C over a 20 min period. For the control experiments, DMSO was used instead of appropriate dilutions of the compounds in DMSO. For the determination of blank (b), the enzyme solution was replaced by a phosphate-buffered solution. Initial velocities were calculated from the obtained trend, with each measurement performed in duplicate. Specific fluorescence emission to determine the final results was calculated after subtracting the blank activity (b). Inhibitory potencies were expressed as RAs, and IC50 values were calculated as described in the section “Inhibition of hBChE and mAChE” above.

MurA = MurA (Escherichia coli, UniProt P0A749); test: Inhibition of MurA, colorimetric malachite green method; type: biochemical, bacterial; conditions: for remaining activity at 50 µM: 0.25 h, read-out: MurA (RA [%]); for RA (MurA, 50 µM): residual activity at 50 µM, Figure 1; for MurA RA (%): residual activity at 100 µM, Table 1
Chain of MurA (P0A749 whole entry): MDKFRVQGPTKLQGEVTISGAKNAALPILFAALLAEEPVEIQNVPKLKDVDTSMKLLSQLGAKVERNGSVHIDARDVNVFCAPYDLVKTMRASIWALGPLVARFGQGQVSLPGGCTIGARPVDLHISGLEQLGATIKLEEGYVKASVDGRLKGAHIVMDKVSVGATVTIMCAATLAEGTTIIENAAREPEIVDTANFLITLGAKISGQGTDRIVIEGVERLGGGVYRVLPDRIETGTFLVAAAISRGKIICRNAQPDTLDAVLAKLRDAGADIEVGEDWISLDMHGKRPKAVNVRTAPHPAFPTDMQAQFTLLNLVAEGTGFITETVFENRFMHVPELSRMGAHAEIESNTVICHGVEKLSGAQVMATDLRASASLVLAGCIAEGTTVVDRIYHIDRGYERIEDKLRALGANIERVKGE
Method: as §2
MurA: 50 mM HEPES-NaOH, pH 7.8, 0.005% Triton X-114, 200 µM uridine-diphosphate-N-acetylglucosamine, 100 µM phosphoenolpyruvate, purified MurA, and 50 or 100 µM of each compound tested.
as §3

MurC = MurC (Escherichia coli, UniProt P17952); test: Inhibition of MurC, colorimetric malachite green method; type: biochemical, bacterial; conditions: for remaining activity at 50 µM / remaining activity at 100 µM: 0.25 h; for remaining activity at 50 µM: read-out: MurC (RA [%]); for remaining activity at 100 µM: residual activity at 100 µM, read-out: MurC RA (%)
Chain of MurC (P17952 whole entry): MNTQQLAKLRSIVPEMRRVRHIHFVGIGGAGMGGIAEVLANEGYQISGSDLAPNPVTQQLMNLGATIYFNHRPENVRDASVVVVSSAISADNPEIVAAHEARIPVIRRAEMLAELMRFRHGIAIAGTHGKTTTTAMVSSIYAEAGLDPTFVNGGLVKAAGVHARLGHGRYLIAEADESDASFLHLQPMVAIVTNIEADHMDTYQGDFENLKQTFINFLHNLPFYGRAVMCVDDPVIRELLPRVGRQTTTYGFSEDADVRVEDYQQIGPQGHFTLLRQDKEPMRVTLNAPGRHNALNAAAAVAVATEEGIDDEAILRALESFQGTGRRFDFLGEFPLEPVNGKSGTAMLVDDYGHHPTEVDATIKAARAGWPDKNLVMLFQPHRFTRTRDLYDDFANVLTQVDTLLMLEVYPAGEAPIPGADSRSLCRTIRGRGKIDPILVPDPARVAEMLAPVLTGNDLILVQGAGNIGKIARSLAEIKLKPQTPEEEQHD
Method: as §2
MurC: 50 mM HEPES-NaOH, pH 8.0, 5 mM MgCl2, 0.005% Triton X-114, 120 µM L-Ala, 120 µM UDP-N-acetyl-muramic acid, 450 µM ATP, purified MurC, and 50 or 100 µM of each compound tested.
as §3

[1] = residual activity at 10 µM, Mini Library screen, Table S1, read-out: hMAO-B (RA [%])
[2] = Mini Library screen, Table S1, read-out: hMAO-A (RA [%])
[3] = residual activity at 10 µM, Table 3, read-out: hMAO-B RA (%)
[4] = Table 3, read-out: hMAO-A RA (%)

Row | SMILES | remaining activity at 10 µM (hMAO-B; [1]) [%] | remaining activity at 50 µM (DdlB) [%] | remaining activity at 10 µM (hMAO-A; [2]) [%] | remaining activity at 50 µM (MurA) [%] | remaining activity at 50 µM (MurC) [%] | IC50 (hMAO-B; Table 3) [µM] | remaining activity at 10 µM (hMAO-B; [3]) [%] | remaining activity at 10 µM (hMAO-A; [4]) [%] | IC50 (MurA) [µM] | RA (MurA, 50 µM) (MurA) [%] | MurA RA (%) (MurA) | hMAO-B RA [%] (hMAO-B; residual activity at 10 µM, Table S3) | hMAO-A RA [%] (hMAO-A; Table S3) | remaining activity at 100 µM (MurC; Table 2) [%] | IC50 (MurC; Table 2, IC50 ± SEM, read-out: MurC IC50) [µM] | IC50 (MurC) [µM]
1 | C1=C(c2ccccc2)CCN(CCCCc2c[nH]c3ccccc23)C1 [MS-ML10] | 82 | 96 | 75 | 110 | 74 | – | – | – | – | – | – | – | – | – | – | –
2 | O=C(Nc1ccc(Oc2ccncc2)cc1)Nc1cc(C(F)(F)F)ccc1-n1cncn1 [MS-ML80] | 11 | 94 | 82 | 93 | 96 | 0.405 ± 0.076 | 10 | 78 | – | – | – | – | – | – | – | –
3 | Oc1ccc2[nH]cc(CCCCN3CC=C(c4ccccc4)CC3)c2c1 [MS-ML11] | 45 | 95 | 31 | 100 | 89 | – | – | – | – | – | – | – | – | – | – | –
4 | CCCCCCN(Cc1ccc(C#Cc2ccc(CCCC)cc2)cc1)c1ccc(O)c(C(=O)O)c1 [MS-ML24] | 64 | 116 | 57 | 15 | 83 | – | – | – | 7 ± 3 | 15 | 0 | – | – | – | – | –
5 | O=C(OC[C@H]1CCCN1c1ccnc2ncnn12)c1ccc(Oc2ccccc2)nc1 [MS-ML31] | 13 | 98 | 78 | 94 | 94 | 0.912 ± 0.122 | 17 | 98 | – | – | – | 17 | 98 | – | – | –
6 | CCCCc1nc2ccn(CC(=O)N3CCCCC3)c(=O)c2n1Cc1ccc(-c2ccccc2S(=O)(=O)NC(=O)OCc2ccccc2)cc1F [MS-ML05] | 93 | 91 | 79 | 90 | 55 | – | – | – | – | – | – | – | – | 32 | 101 ± 23 | –
7 | CCCCc1nc2ccn(Cc3ccccc3)c(=O)c2n1Cc1ccc(-c2ccccc2-c2nnn[nH]2)cc1 [MS-ML03] | 97 | 81 | 83 | 100 | 61 | – | – | – | – | – | – | – | – | 40 | – | 85 ± 15
8 | CCCCCCN(Cc1ccc(C#Cc2ccc(CCCC)cc2)cc1)c1ccc(F)c(C(=O)O)c1 [MS-ML26] | 92 | 114 | 60 | 7 | 73 | – | – | – | 7 ± 4 | 7 | 0 | – | – | – | – | –
9 | CCCCCCN(Cc1ccc(C#Cc2ccc(CCCC)cc2)cc1)C(=O)c1ccc(O)c(C(=O)O)c1 [MS-ML25] | 77 | 114 | 73 | 0 | 98 | – | – | – | 6 ± 2 | 0 | 0 | – | – | – | – | –
